Patent publication US10526347B2, “3-(3H-imidazo[4,5-B]pyridin-2-yl)-1H-pyrazolo[3,4-B]pyridine and therapeutic uses thereof” (Samumed, LLC, priority 2014, dated 2020)

What was measured:
Assay type in all cases: cell-based
[1] = system: Wnt activity (SW480 colon carcinoma cells stably expressing the Sp5-Luc reporter gene); test: Sp5-Luc reporter gene screening assay for Wnt activity; conditions: Homo sapiens
Summary of the method: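 The SW480 cells carry a lentiviral luciferase reporter driven by a Sp5 promoter with eight TCF/LEF sites. They were plated at 10,000 cells/well in 10% FCS overnight, then pinned with 50 nl of 3-fold dilutions (10 mM top source concentration) into 50 μl.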

[2] = system: primary human mesenchymal stem cells (hMSCs); test: Chondrogenesis induction in primary human mesenchymal stem cells (chondrogenic nodules, Rhodamine B / Nile Red); conditions: 6 days; for EC (100% of TGF-beta3 activity): Homo sapiens, Mesenchymal stem cells, 144 h, concentration required to induce chondrogenesis equivalent to TGF-β3 10 ng/mL, read-out: Conc (nM) of 100% TGF-β3 activity; for Max. Activity as % TGF-β3 activity: positive control TGF-β3 10 ng/mL, nodule number normalized to DMSO
Protocol: The above synthesized compounds were screened using primary human mesenchymal stem cells (hMSCs) to determine their ability to induce chondrogenesis (process by which cartilage is developed).
Primary human mesenchymal stem cells (hMSCs) were purchased from Lonza (Walkersville, Md.) and expanded in Mesenchymal Stem Cell Growth Media (Lonza). Cells between passage 3 and 6 were used for the experiments.
Each compound was dissolved in DMSO as a 10 mM stock and used to prepare compound source plates. Serial dilution (1:3, 6-point dose-response curves from 2700 nM to 10 nM) and compound transfer was performed using the ECHO 550 (Labcyte, Sunnyvale, Calif.) into 96-well clear bottom assay plates (Greiner Bio-One) with appropriate DMSO backfill for a final DMSO concentration of 0.03%. hMSCs were plated at 20,000 cells/well in 250 μL/well Incomplete Chondrogenic Induction Medium (Lonza; DMEM, dexamethasone, ascorbate, insulin-transferrin-selenium [ITS supplement], gentamycin-amphotericin [GA-1000], sodium pyruvate, proline and L-glutamine). TGF-β3 (10 ng/mL) was used as a positive control for differentiation while negative control wells were treated with 75 nL DMSO for normalization and calculating EC50 values. Cells were incubated at 37° C. and 5% CO2 for 6 days. To image chondrogenic nodules, the cells were fixed using 4% formaldehyde (Electron Microscopy Sciences), and stained with 2 μg/mL Rhodamine B (Sigma-Aldrich) and 20 μM Nile Red (Sigma-Aldrich) [Johnson K., et. al, A Stem Cell-Based Approach to Cartilage Repair, Science, (2012), 336(6082). 717-721]. The nodules imaged (4 images per well at 4× magnification) by excitation at 531 nm and emission at 625 nm and quantified using the CellInsight CX5 (Thermo Scientific). Number of nodules in each well was normalized to the average of 3 DMSO treated wells on the same plate using Excel (Microsoft Inc.). The normalized averages (fold change over DMSO) of 3 replicate wells for each compound concentration were calculated. Due to solubility limitations of some of the compounds, curve fitting was incomplete leading to inaccurate EC50 determinations.
Using TGF-β3 as a positive control, the concentration of test compounds required to induce equivalent levels of chondrogenesis is reported. In addition, the maximum activity of each compound and the respective dose that each compound reached maximum chondrogenesis activity is reported.

[3] = system: primary human fibroblasts derived from IPF patients (LL29 cells); test: Inhibition of the fibrotic process in TGF-β1 treated IPF patient fibroblasts (αSMA staining); conditions: Fibroblast, 96 h, LL29 cells treated with TGF-β1 (20 ng/mL), 4 days, read-out: Inhibition of fibrosis EC50
Summary of the method: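 LL29 IPF lung fibroblasts in F12 with 1% FBS, compound (11-point, 10 μM to 1.87 nM, 0.1% DMSO) plus TGF-β1 20 ng/mL for 4 days at 37° C. αSMA-positive % of SYTOX-negative cells by immunofluorescence imaging, normalized to TGF-β1 wells; EC50 from non-linear regression of triplicates.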

Row | Structure (SMILES) | IC50 [1] | EC (100% of TGF-beta3 activity) [2] | EC50 [3] | Max. Activity as % TGF-β3 activity [2]
1 | CCC(=O)Nc1cncc(-c2cnc3[nH]nc(-c4nc5c(-c6cccs6)ccnc5[nH]4)c3c2)c1 [Compound 285, N-(5-(3-(7-(Thiophen-2-yl)-3H-imidazo[4,5-b]pyridin-2-yl)-1H-pyrazolo[3,4-b]pyridin-5-yl)pyridin-3-yl)propionamide] | 3.3 nM | 48.9 nM | ≤ 9 nM | –
2 | O=C(Nc1cncc(-c2cnc3[nH]nc(-c4nc5c(-c6ccc(F)cc6)ccnc5[nH]4)c3c2)c1)C1CCC1 [Compound 38, N-(5-(3-(7-(4-Fluorophenyl)-3H-imidazo[4,5-b]pyridin-2-yl)-1H-pyrazolo[3,4-b]pyridin-5-yl)pyridin-3-yl)cyclobutanecarboxamide] | 11.5 nM | 48.6 nM | 118 nM | –
3 | Nc1cncc(-c2cnc3[nH]nc(-c4nc5c(-c6ccccc6F)ccnc5[nH]4)c3c2)c1 [Compound 45, 5-(3-(7-(2-Fluorophenyl)-3H-imidazo[4,5-b]pyridin-2-yl)-1H-pyrazolo [3,4-b]pyridin-5-yl)pyridin-3-amine] | 3.7 nM | 59.9 nM | ≤ 9 nM | 300%
4 | CC(C)Nc1cncc(-c2cnc3[nH]nc(-c4nc5c(-c6cccnc6)ccnc5[nH]4)c3c2)c1 [Compound 75, N-Isopropyl-5-(3-(7-(pyridin-3-yl)-3H-imidazo[4,5-b]pyridin-2-yl)-1H-pyrazolo[3,4-b]pyridin-5-yl)pyridin-3-amine] | 45.4 nM | 58.5 nM | – | –
5 | CCC(=O)Nc1cncc(-c2cnc3[nH]nc(-c4nc5c(N6CCCCC6)ccnc5[nH]4)c3c2)c1 [Compound 133, N-(5-(3-(7-(Piperidin-1-yl)-3H-imidazo[4,5-b]pyridin-2-yl)-1H-pyrazolo[3,4-b]pyridin-5-yl)pyridin-3-yl)propionamide] | 36.6 nM | 317 nM | 853 nM | 300%
6 | CCCC(=O)Nc1cncc(-c2cnc3[nH]nc(-c4nc5c(-c6ccsc6)ccnc5[nH]4)c3c2)c1 [Compound 249, N-(5-(3-(7-(Thiophen-3-yl)-3H-imidazo[4,5-b]pyridin-2-yl)-1H-pyrazolo[3,4-b]pyridin-5-yl)pyridin-3-yl)butyramide] | 2.7 nM | 31.9 nM | 35 nM | –
7 | Cc1cn(-c2ccnc3[nH]c(-c4n[nH]c5ncc(-c6cncc(NC(=O)CC(C)C)c6)cc45)nc23)cn1 [Compound 160, 3-Methyl-N-(5-(3-(7-(4-methyl-1H-imidazol-1-yl)-3H-imidazo[4,5-b]pyridin-2-yl)-1H-pyrazolo[3,4-b]pyridin-5-yl)pyridin-3-yl)butanamide] | 8.3 nM | 26.8 nM | – | –

Further lines, with some results ahead:

Row | IC50 [1] | Structure (SMILES) | EC (100% of TGF-beta3 activity) [2] | EC50 [3] | Max. Activity as % TGF-β3 activity [2]
8 | 21.7 nM | CCCCC(=O)Nc1cncc(-c2cnc3[nH]nc(-c4nc5c(-c6cc(F)cc(NCCN(C)C)c6)ccnc5[nH]4)c3c2)c1 [Compound 432, N-(5-(3-(7-(3-((2-(Dimethylamino)ethyl)amino)-5-fluorphenyl)-3H-imidazo[4,5-b]pyridin-2-yl)-1H-pyrazolo[3,4-b]pyridin-5-yl)pyridin-3-yl)pentanamide] | 57 nM | – | –
9 | 2.6 nM | Cc1ccc(-c2ccnc3[nH]c(-c4n[nH]c5ncc(-c6cncc(N)c6)cc45)nc23)s1 [Compound 339, 5-(3-(7-(5-Methylthiophen-2-yl)-3H-imidazo[4,5-b]pyridin-2-yl)-1H-pyrazolo[3,4-b]pyridin-5-yl)pyridin-3-amine] | 43.2 nM | 40 nM | –
10 | 66 nM | Cc1ncc(-c2cnc3[nH]nc(-c4nc5c(-c6cccc(F)c6)ccnc5[nH]4)c3c2)n1C [Compound 913, 5-(1,2-Dimethyl-1H-imidazol-5-yl)-3-(7-(3-fluorophenyl)-3H-imidazo[4,5-b]pyridin-2-yl)-1H-pyrazolo[3,4-b]pyridine] | 117 nM | 216 nM | 300%
11 | 30 nM | Fc1cccc(-c2ccnc3[nH]c(-c4n[nH]c5ncc(-c6cn[nH]c6)cc45)nc23)c1 [Compound 911, 3-(7-(3-Fluorophenyl)-3H-imidazo[4,5-b]pyridin-2-yl)-5-(1H-pyrazol-4-yl)-1H-pyrazolo[3,4-b]pyridine] | 110 nM | 29 nM | 100%
12 | 20.6 nM | Cc1ccncc1-c1cnc2[nH]nc(-c3nc4c(-c5cc(F)cc(CNS(C)(=O)=O)c5)ccnc4[nH]3)c2c1 [Compound 393, N-(3-Fluoro-5-(2-(5-(4-methylpyridin-3-yl)-1H-pyrazolo[3,4-b]pyridin-3-yl)-3H-imidazo[4,5-b]pyridin-7-yl)benzyl)methanesulfonamide] | 140 nM | 674 nM | 100%
